Values quoted from earlier work in US20230346652A1, “Foaming Hand Sanitizer with High Alcohol Content” (Ele' Corporation, priority 2021, published 2023).

Tests used:
[1] = test system: certain non-enveloped viruses

CCO [ethanol]
ethanol concentration effective within 30 seconds (enveloped viruses): less than 75 % (by weight)
ethanol concentration necessary to kill within 30 seconds [1]: up to 95%
